Source: ChEMBL document CHEMBL4371081, “The role of N-terminal heterocycles in hydrogen bonding to α-chymotrypsin” (Bioorg Med Chem Lett, 2019)
The source made the active and inactive calls. No cut-off for these calls is given here. Where a SMILES comes first, the peptide text is derived from it. [ ]: non-standard residue; d: D form. The star is where a group is joined. ξ: configuration not given here. Phe(ol) = N[C@H](CO)Cc1ccccc1; ξF = NC(Cc1ccccc1)C(=O)O; Boc = CC(C)(C)OC(=O)*

System: not listed separately
Experiment: Inhibition of alpha-chymotrypsin (unknown origin) using Ala-Ala-Phe-7-AMC as substrate measured over 10 mins by spectrophotometric method
Set-up: species or system Homo sapiens

| IC50 [µM] | Compound |
| --- | --- |
| 40 | COC(=O)c1ccc(C(=O)N[C@@H](CC(C)C)C(=O)NC(C=O)Cc2ccccc2)s1 (mixture of isomers) |
| 36 | COC(=O)c1ccc(C(=O)N[C@@H](CC(C)C)C(=O)NC(C=O)Cc2ccccc2)o1 (mixture of isomers) |
| 35 | COC(=O)c1cccc(C(=O)N[C@@H](CC(C)C)C(=O)NC(C=O)Cc2ccccc2)n1 (stereo partly specified) |
| 1.1 | COC(=O)c1ccc(C(=O)N[C@@H](CC(C)C)C(=O)NC(C=O)Cc2ccccc2)[nH]1 (mixture of isomers) |
| 1.4 | CC(C)C[C@H](NC(=O)[C@H](C)NC(=O)OC(C)(C)C)C(=O)NC(C=O)Cc1ccccc1 (stereo partly drawn) (Boc-Ala-Leu-[ξF]-aldehyde) |

Organism: Homo sapiens
Experiment: Inhibition of alpha-chymotrypsin (unknown origin) at 500 uM using Ala-Ala-Phe-7-AMC as substrate measured over 10 mins by spectrophotometric method

| inhibition | Compound |
| --- | --- |
| inactive | CC(C)C[C@H](NC(=O)[C@H](C)NC(=O)OC(C)(C)C)C(=O)N[C@H](CO)Cc1ccccc1 (Boc-Ala-Leu-[Phe(ol)]) |
| inactive | COC(=O)c1ccc(C(=O)N[C@@H](CC(C)C)C(=O)N[C@H](CO)Cc2ccccc2)[nH]1 |
| inactive | COC(=O)c1cccc(C(=O)N[C@@H](CC(C)C)C(=O)N[C@H](CO)Cc2ccccc2)n1 |
| inactive | CCOC(=O)c1ccc(C(=O)N[C@@H](CC(C)C)C(=O)N[C@H](CO)Cc2ccccc2)o1 |
| inactive | COC(=O)c1ccc(C(=O)N[C@@H](CC(C)C)C(=O)N[C@H](CO)Cc2ccccc2)o1 |
| inactive | COC(=O)c1ccc(C(=O)N[C@@H](CC(C)C)C(=O)N[C@H](CO)Cc2ccccc2)s1 |
